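Five compound concentrations were applied to cells in 96-well plates for 48 hours; endpoints were derived by simple linear interpolation of the resulting dose-response curve. The concentration for 50% growth inhibition is given as GI50. TGI is the concentration that stops growth completely.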
Tests used:
Experiment in all cases: inhibition of tumour cell growth, NCI panel, 48 h
T-47D breast = test system: T-47D breast
IGROV1 ovarian = test system: IGROV1 ovarian
NCI-H460 lung = test system: NCI-H460 lung
SN12C renal = test system: SN12C renal
SR leukemia = test system: SR leukemia
UACC-257 melanoma = test system: UACC-257 melanoma
CCRF-CEM leukemia = test system: CCRF-CEM leukemia
OVCAR-3 ovarian = test system: OVCAR-3 ovarian
OVCAR-5 ovarian = test system: OVCAR-5 ovarian
786-0 renal = test system: 786-0 renal
NCI-H522 lung = test system: NCI-H522 lung
SF-539 CNS = test system: SF-539 CNS
SF-268 CNS = test system: SF-268 CNS
MDA-MB-231 breast = test system: MDA-MB-231 breast
NCI-H226 lung = test system: NCI-H226 lung
M14 melanoma = test system: M14 melanoma
HCT-116 colon = test system: HCT-116 colon
OVCAR-4 ovarian = test system: OVCAR-4 ovarian
A498 renal = test system: A498 renal
SNB-75 CNS = test system: SNB-75 CNS
PC-3 prostate = test system: PC-3 prostate
KM12 colon = test system: KM12 colon
MOLT-4 leukemia = test system: MOLT-4 leukemia
HS 578T breast = test system: HS 578T breast
HOP-62 NSCLC = test system: HOP-62 NSCLC
MALME-3M melanoma = test system: MALME-3M melanoma
ACHN renal = test system: ACHN renal
SW-620 colon = test system: SW-620 colon
COLO 205 colon = test system: COLO 205 colon
RPMI-8226 leukemia = test system: RPMI-8226 leukemia

C#C[C@]1(O)CC[C@H]2[C@@H]3CC=C4c5sc(Nc6cc(C)cc(C)n6)nc5CC[C@]4(C)[C@H]3CC[C@@]21C
GI50 (T-47D breast): > 100 µM | TGI (T-47D breast): > 100 µM | GI50 (IGROV1 ovarian): > 100 µM | TGI (IGROV1 ovarian): > 100 µM | GI50 (NCI-H460 lung): > 100 µM | TGI (NCI-H460 lung): > 100 µM | GI50 (SN12C renal): > 100 µM | TGI (SN12C renal): > 100 µM | GI50 (SR leukemia): > 100 µM | TGI (SR leukemia): > 100 µM | GI50 (UACC-257 melanoma): > 100 µM | TGI (UACC-257 melanoma): > 100 µM | GI50 (CCRF-CEM leukemia): > 100 µM | TGI (CCRF-CEM leukemia): > 100 µM | GI50 (OVCAR-3 ovarian): > 100 µM | TGI (OVCAR-3 ovarian): > 100 µM | GI50 (OVCAR-5 ovarian): > 100 µM | TGI (OVCAR-5 ovarian): > 100 µM | GI50 (786-0 renal): > 100 µM | TGI (786-0 renal): > 100 µM | GI50 (NCI-H522 lung): > 100 µM | TGI (NCI-H522 lung): > 100 µM | GI50 (SF-539 CNS): > 100 µM | TGI (SF-539 CNS): > 100 µM | GI50 (SF-268 CNS): > 100 µM | TGI (SF-268 CNS): > 100 µM | GI50 (MDA-MB-231 breast): > 100 µM | TGI (MDA-MB-231 breast): > 100 µM | GI50 (NCI-H226 lung): > 100 µM | TGI (NCI-H226 lung): > 100 µM | GI50 (M14 melanoma): > 100 µM | TGI (M14 melanoma): > 100 µM | GI50 (HCT-116 colon): > 100 µM | TGI (HCT-116 colon): > 100 µM | GI50 (OVCAR-4 ovarian): > 100 µM | TGI (OVCAR-4 ovarian): > 100 µM | GI50 (A498 renal): > 100 µM | TGI (A498 renal): > 100 µM | GI50 (SNB-75 CNS): > 100 µM | TGI (SNB-75 CNS): > 100 µM | GI50 (PC-3 prostate): > 100 µM | TGI (PC-3 prostate): > 100 µM | GI50 (KM12 colon): > 100 µM | TGI (KM12 colon): > 100 µM | GI50 (MOLT-4 leukemia): > 100 µM | TGI (MOLT-4 leukemia): > 100 µM | GI50 (HS 578T breast): > 100 µM | TGI (HS 578T breast): > 100 µM | GI50 (HOP-62 NSCLC): > 100 µM | TGI (HOP-62 NSCLC): > 100 µM | GI50 (MALME-3M melanoma): > 100 µM | TGI (MALME-3M melanoma): > 100 µM | GI50 (ACHN renal): > 100 µM | TGI (ACHN renal): > 100 µM | GI50 (SW-620 colon): > 100 µM | TGI (SW-620 colon): > 100 µM | GI50 (COLO 205 colon): > 100 µM | TGI (COLO 205 colon): > 100 µM | GI50 (RPMI-8226 leukemia): > 100 µM

Source: PubChem BioAssay (NCI)
